Source: PubChem BioAssay (NCI)
“And” between values parts separate entries of the source, which are not always exact repeats. Equal entries are not always repeated.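 Five concentrations, 48 hours, 96-well plates. GI50 marks 50% less growth. Definition used: TGI = concentration required for complete inhibition of growth.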 *1 amine or outer side, *2 acyl side, *3 side chain or, on linkers, in order; H or OH if unused. Where a SMILES comes first, the peptide text is derived from it. Bridges are numbered along the chain shown (N, C = ends). [ ]: non-standard residue; d: D form. The star is where a group is joined. ξ: configuration not given here. X34 = O=C(C(CCCCNO[*:3])N[*:1])[*:2]; Fmoc = O=C(OCC1c2ccccc2-c2ccccc21)*; ξW = NC(Cc1c[nH]c2ccccc12)C(=O)O; ξP = O=C(O)C1CCCN1

Assays:
HCT-15 colon = assay: NCI anticancer screen, dose series, 48 h
T-47D breast = assay: NCI anticancer screen, dose series, 48 h

| SMILES | TGI (HCT-15 colon) | TGI (T-47D breast) [µM] | GI50 (HCT-15 colon) |
| --- | --- | --- | --- |
| CN(C)CCCOc1nc2c(c(=O)n(C)c(=O)n2C)n1C (tested in a mixture with another compound) | 42.9 µM | > 100 | – |
| O=C(O)CN(CCNC(=O)OCC1c2ccccc2-c2ccccc21)CCNC(=O)OCC1c2ccccc2-c2ccccc21 | 70.3 µM | 49.9 | – |
| CN1C(=O)C2C(=O)N(Cc3ccccc3)CC(=O)N2c2cccnc21 (stereo unspecified) | > 100 µM | > 100 | – |
| CC1(O)CC(C(F)(F)F)(C(F)(F)F)OC1=O (stereo unspecified) | > 10 µM | > 10 | – |
| OCC1CCCCCCCCCCC12SCCCS2 (stereo unspecified) | > 100 µM | > 100 | – |
| O=C1/C(=C/c2ccccc2)N=C(c2ccccc2)N1n1c(-c2ccccc2)nc2ccccc2c1=O | > 100 µM | > 100 | – |
| COc1cc(-c2cc(=O)c3cc4c(cc3[nH]2)OCO4)cc(OC)c1O | > 10 µM | > 10 | – |
| Cc1ccc(-c2c(C#N)c(-c3ccccc3)n(NS(=O)(=O)c3ccccc3)c(=O)c2C#N)cc1 | > 100 µM | – | – |
| Cc1cc(N(CCC#N)CCC#N)ccc1/C=N/NC(=O)c1cc(Cl)ccc1O | > 100 µM | > 100 | – |
| O=C(CC(=O)n1nc(-c2ccccc2)c(N=Nc2ccccc2C(=O)O)c1-c1ccccc1)Nc1ccc(Cl)cc1 | > 100 µM | > 100 | – |
| C=C1CC(COc2cc(=O)oc3ccccc23)(c2ccccc2)OC1=O (stereo unspecified) | 3.78 µM | 5.27 | – |
| CC1=C2C(=O)NN=C2CCN1c1ccc(Br)cc1 | > 100 µM | > 100 | – |
| COc1ccccc1Nc1nc(N)nc(N)c1N=O | > 100 µM | > 100 | – |
| O=C(CN1c2ccccc2Sc2ccccc21)N1CCNCC1 | > 100 µM | > 100 | – |
| NCC1CCN(c2nc3ccccc3c3c2CCCC3)CC1 | 14.9 µM | 8.81 | – |
| C=C(C)C12CC(COC(=O)c3ccccc3)C34OC5(OC1C3C1OC1(CO)C(O)C1(O)C(OC(=O)c3ccccc3)C(C)C(C(C)CCCCCCC5O)C14)O2 (stereo unspecified) | > 100 µM | > 100 | – |
| CC(=O)OCC1OC(OC(C)(C)CC/C=C(\C)[C@@H]2C/C=C(\C)CC/C=C(\C)CC2)C(O)C(O)C1OC(C)=O (stereo partly specified) | > 100 µM and 29.2 µM | – | 49.4 µM and 14.2 µM |
| Cc1nc2cccc([N+](=O)[O-])c2c(NCCCN(C)C)c1C | > 52.8 µM | > 100 | – |
| CC(C)(C)C1=C(Br)C(Br)(C(C)(C)C)OP1(=O)c1ccccc1 (stereo unspecified) | > 100 µM | > 100 | – |
| CN(C)CCCOC(=O)C(c1ccccc1)C1(O)CCSCC1 (stereo unspecified) | > 100 µM | > 100 | – |
| CN(CCC#N)c1ccc(/C=C2\SC(=S)NC2=O)cc1 | > 100 µM | > 100 | – |
| Cc1nnc(Nc2ccccc2)o1 | > 100 µM | > 100 | – |

| SMILES | TGI (HCT-15 colon) | TGI (T-47D breast) [µM] | GI50 (HCT-15 colon) |
| --- | --- | --- | --- |
| Nc1cc(CO)cc(Nc2nc3ccc(Cl)cc3c3[nH]c4ccccc4c23)c1 | 18.6 µM | 20.8 | – |
| O=C(NNC(=S)Nc1ccc(Cl)cc1)c1cc(-c2ccccc2)nc2ccccc12 | 14.9 µM | 11.6 | – |
| NC(C(F)(F)F)(C(F)(F)F)P(=O)(Cc1ccccc1)Cc1ccccc1 | > 100 µM | > 100 | – |
| NC(=O)N/N=C(\Cc1nc2ccc(Cl)cc2[nH]c1=O)C(=O)Nc1ccc(Cl)cc1Cl | > 100 µM | > 100 | – |
| Nc1ccc2nc(-c3ccccn3)c(-c3ccccn3)nc2c1 | > 100 µM | > 100 | – |
| O=C1CCC[C@@H]2NC[C@@H](c3ccc4c(c3)OCO4)[C@H]12 | > 25 µM | > 25 | – |
| CC(C)=CCOC(=O)C(C)=[N+]=[N-] | > 100 µM | > 100 | – |
| Brc1ccc(CCNCCN2CCCCC2)cc1 | 33.6 µM | 32 | – |
| CC1(C)OCC(COC(=O)C=[N+]=[N-])O1 (stereo unspecified) | > 100 µM | – | – |
| C[C@@]12[C@H]3CC[C@@H]1[C@H](O)C(=O)N2CC3 | > 100 µM | > 100 | – |
| Cc1nc2c(sc(=S)n2-c2ccccc2)c2nc3ncccc3n12 | > 100 µM | > 100 | – |
| O=C(O)c1c2c(cc3c1CC1(Cc4ccccc4C1)C3)CCC2 | > 100 µM | > 100 | – |
| Cc1ccc(C(=O)Nc2ccc(CP(=O)(O)O)cc2CP(=O)(O)O)cc1NC(=O)c1cccc(N)c1 | > 100 µM | > 100 | – |
| Cc1nc(-c2ccc([N+](=O)[O-])cc2)cn2c1nc1ccccc12 | > 100 µM | > 100 | – |
| CC(C)(C)c1ccc2c(c1)CNCCNCc1cc(C(C)(C)C)ccc1OCC1(CO2)COc2ccc(C(C)(C)C)cc2CNCCNCc2cc(C(C)(C)C)ccc2OC1 | 2.17 µM | 3.73 | – |
| COc1ccc(-n2c(=O)c3[nH]cnc3n(-c3ccc(OC)cc3)c2=S)cc1 | > 100 µM | > 100 | – |
| Cc1nnc2n1N=C(c1cc(F)c(Cl)cc1Cl)/C(=C/c1ccc(Cl)cc1)S2 | 35.2 µM | > 100 | – |
| c1ccc2c(c1)OC(N1CCCC1)c1cnc(N3CCCC3)nc1-2 (stereo unspecified) | > 100 µM | 93.3 | – |
| CC(O[Si](c1ccccc1)(c1ccccc1)C(C)(C)C)[C@H](NC(=O)OC(C)(C)C)C(=O)O[Si](c1ccccc1)(c1ccccc1)C(C)(C)C (stereo partly specified) | 18.8 µM | 25.7 | – |
| OC1C2[C@@H](O)CCCN2C[C@@H](O)[C@H]1O (stereo partly specified) | > 100 µM | > 100 | – |
| O=C(/C=C/c1ccc(O)c([N+](=O)[O-])c1)CC(=O)/C=C/c1ccc(O)c([N+](=O)[O-])c1 | > 100 µM | – | – |
| COc1ccccc1N/C(=C\C(=O)C(=O)NC12CC3CC(CC(C3)C1)C2)c1ccccc1 | > 10 µM | > 10 | – |

| SMILES | TGI (HCT-15 colon) | TGI (T-47D breast) [µM] | GI50 (HCT-15 colon) |
| --- | --- | --- | --- |
| CC(C)Sc1nc(C#N)cc2c1CCCC2 | > 100 µM | > 100 | – |
| CCOc1cc(NC(C)=O)ccc1C(=O)NNC(=O)c1ccccc1OC(C)=O | > 100 µM | > 46.4 | – |
| Cc1ccc([C@@H]2[C@@H](C(=O)c3ccccn3)[C@H](c3ccc(C)cc3)C[C@](O)(c3ccccn3)[C@H]2C(=O)c2ccccn2)cc1 | > 100 µM | > 100 | – |
| CN1C(=O)N(c2ccccc2)C2(CCN(CC3COc4ccccc4O3)CC2)C1=O (stereo unspecified) | > 100 µM | > 100 | – |
| CCN(CC)CCc1c2c(nc3ccccc13)C(=O)c1cccnc1C2=O | 1.29 µM | 5.31 | – |
| O=C(Nc1ccc(Br)cc1)c1c(-c2ccccc2)c2ccc(O)cc2oc1=O | > 10 µM | > 10 | – |
| COCOC1/C=C/CCCCC2=C(C)C=C(C1)O2 (stereo unspecified) | > 100 µM | > 100 | – |
| CSc1nc(Cl)c2c(n1)Sc1nc3cc4c(cc3n1C2O)OCCO4 (stereo unspecified) | 11.1 µM | 65.3 | – |
| COc1cc(O)c(/C=N/N=C(\N)NO)c(OC)c1 | > 10 µM | > 10 | – |
| COCOC1/C=C/CCCC#C[C@H](C)C(=O)CC1 (stereo partly specified) | 24 µM | 31.3 | – |
| O=C(O)c1cc2c(cc1CC(Cc1ccc3c(c1)CCC3)C(=O)O)CCC2 (stereo unspecified) | > 100 µM | > 100 | – |
| NC(=O)CNC(=O)C1CCCN1C(=O)C1CCCCNOC(=O)CC[C@@H](NC(=O)OCC2c3ccccc3-c3ccccc32)C(=O)NC(Cc2c[nH]c3ccccc23)C(=O)N1 (stereo partly specified) (Fmoc-[dE][ξW][X34][ξP]G-NH2; ester 1-3) | > 100 µM | > 100 | – |
| OCCCCCNc1c2ccccc2nc2ccccc12 | 13.9 µM | 8.38 | – |
| CC(CN1c2ccccc2Sc2ccccc21)N(C)C (stereo unspecified) | 35.1 µM | 41.6 | – |
| COc1cc2c(cc1OC)C1=Cc3cc(OC)c(OC)cc3C(C)N1C=C2 (stereo unspecified) | > 100 µM | > 100 | – |
| CC(=O)OCC(C)C1=C(O)C(=O)C2(C)C/C=C(/C)CC/C=C(\C)CCC(O)C(C)CCC12 (stereo unspecified) | 36.2 µM | 14.9 | – |
| S=C(N/N=C\C=N/NC(=S)N1CCCCC1)N1CCCCC1 | > 100 µM | – | – |
| C[N+]1=C2[B-](C(C)(C)C)=[N+](C(C)(C)C)[B-]2(C(C)(C)C)[N+](C)=C2[B-](C(C)(C)C)=[N+](C(C)(C)C)[B-]21C(C)(C)C (stereo unspecified) | > 100 µM | > 100 | – |
| COc1cccc(-c2cc(=O)c3ccccc3o2)c1N | > 100 µM | > 57.3 | – |
| COc1cccc2c(N)c3cccc(C(=O)NCCN(C)C)c3nc12 | 21.2 µM | 5.38 | – |
| CCCCN1C(=O)CC2[C@@H]3CCc4cc(OC(C)=O)ccc4C3CC[C@]2(C)C1=O (stereo partly specified) | > 10 µM | > 10 | – |
